Experiments:
Assay in all cases: In vitro assay of antibacterial activity (agar dilution MIC)
Type in all cases: cell-based
[1] = tested on: Streptococcus pyogenes PIU 2548; settings: BHI agar, 35-37 °C, 20 to 24 hours, unit assumed
Protocol: (§1) Representative compounds of the present invention were assayed in vitro for antibacterial activity as follows: Twelve petri dishes containing successive aqueous dilutions of the test compound mixed with 10 mL of sterilized Brain Heart Infusion (BHI) agar (Difco 0418-01-5) were prepared. Each plate was inoculated with 1:100 (or 1:10 for slow-growing strains, such as Micrococcus and Streptococcus) dilutions of up to 32 different microorganisms, using a Steers replicator block. The inoculated plates were incubated at 35-37 °C for 20 to 24 hours, In addition, a control plate, using BHI agar containing no test compound, was prepared and incubated at the beginning and end of each test.
(§2) An additional plate containing a compound having known susceptibility patterns for the organisms being tested and belonging to the same antibiotic class as the test compound was also prepared and incubated as a further control, as well as to provide test-to-test comparability. Erythromycin A was used for this purpose.
(§3) After incubation, each plate was visually inspected. The minimum inhibitory concentration (MIC) was defined as the lowest concentration of drug yielding no growth, a slight haze, or sparsely isolated colonies on the inoculum spot as compared to the growth control. […]

Escherichia coli DC-2 = settings: BHI agar, 35-37 °C, 20 to 24 hours, unit assumed
Protocol: as §1, §2, §3

Escherichia coli H560 = settings: BHI agar, 35-37 °C, 20 to 24 hours, unit assumed
Protocol: as §1, §2, §3

Escherichia coli SS = settings: BHI agar, 35-37 °C, 20 to 24 hours, unit assumed
Protocol: as §1, §2, §3

[2] = tested on: Staphylococcus aureus ATCC 6538P; settings: BHI agar, 35-37 °C, 20 to 24 hours, unit assumed
Protocol: as §1, §2, §3

[3] = tested on: Streptococcus agalactiae CMX 508; settings: BHI agar, 35-37 °C, 20 to 24 hours, unit assumed
Protocol: as §1, §2, §3

[4] = tested on: Providencia struartii CMX 640; settings: BHI agar, 35-37 °C, 20 to 24 hours, unit assumed
Protocol: as §1, §2, §3

Escherichia coli JUHL = settings: BHI agar, 35-37 °C, 20 to 24 hours, in µg/mL (unit assumed)
Protocol: as §1, §2, §3

[5] = tested on: Staphylococcus aureus CMX 553; settings: BHI agar, 35-37 °C, 20 to 24 hours, unit assumed
Protocol: as §1, §2, §3

[6] = tested on: Pseudomonas aeruginosa K799/WT; settings: BHI agar, 35-37 °C, 20 to 24 hours, unit assumed
Protocol: as §1, §2, §3

Escherichia coli KNK 437 = settings: BHI agar, 35-37 °C, 20 to 24 hours, unit assumed
Protocol: as §1, §2, §3

[7] = tested on: Staphylococcus aureus CMX 642A; settings: BHI agar, 35-37 °C, 20 to 24 hours, unit assumed
Protocol: as §1, §2, §3

[8] = tested on: Streptococcus pyogenes EES61; settings: BHI agar, 35-37 °C, 20 to 24 hours, unit assumed
Protocol: as §1, §2, §3

[9] = tested on: Pseudomonas aeruginosa K799/61; settings: BHI agar, 35-37 °C, 20 to 24 hours, unit assumed
Protocol: as §1, §2, §3

[10] = tested on: Mycobacterium smegmatis ATCC 114; settings: BHI agar, 35-37 °C, 20 to 24 hours, unit assumed
Protocol: as §1, §2, §3

Candida albicans CCH 442 = settings: BHI agar, 35-37 °C, 20 to 24 hours, unit assumed
Protocol: as §1, §2, §3

[11] = tested on: Enterobacter aerogenes ATCC 13048; settings: BHI agar, 35-37 °C, 20 to 24 hours, unit assumed
Protocol: as §1, §2, §3

[12] = tested on: Staphylococcus aureus NCTC10649M; settings: BHI agar, 35-37 °C, 20 to 24 hours, unit assumed
Protocol: as §1, §2, §3

[13] = tested on: Pseudomonas aeruginosa 5007; settings: BHI agar, 35-37 °C, 20 to 24 hours, unit assumed
Protocol: as §1, §2, §3

[14] = tested on: Pseudomonas aeruginosa BMH10; settings: BHI agar, 35-37 °C, 20 to 24 hours, in µg/mL (unit assumed)
Protocol: as §1, §2, §3

[15] = tested on: Streptococcus bovis A-5169; settings: BHI agar, 35-37 °C, 20 to 24 hours, unit assumed
Protocol: as §1, §2, §3

[16] = tested on: Staphylococcus epidermidis 3519; settings: BHI agar, 35-37 °C, 20 to 24 hours, unit assumed
Protocol: as §1, §2, §3

[17] = tested on: Pseudomonas aeruginosa DPHD-5263; settings: BHI agar, 35-37 °C, 20 to 24 hours, in µg/mL (unit assumed)
Protocol: as §1, §2, §3

[18] = tested on: Klebsiella pneumoniae ATCC 8045; settings: BHI agar, 35-37 °C, 20 to 24 hours, unit assumed
Protocol: as §1, §2, §3

[19] = tested on: Streptococcus pyogenes 930; settings: BHI agar, 35-37 °C, 20 to 24 hours, unit assumed
Protocol: as §1, §2, §3

[20] = tested on: Pseudomonas aeruginosa DPHD-2862; settings: BHI agar, 35-37 °C, 20 to 24 hours, unit assumed
Protocol: as §1, §2, §3

[21] = tested on: Staphylococcus aureus A-5278; settings: BHI agar, 35-37 °C, 20 to 24 hours, unit assumed
Protocol: as §1, §2, §3

[22] = tested on: Staphylococcus aureus 1775; settings: BHI agar, 35-37 °C, 20 to 24 hours, unit assumed
Protocol: as §1, §2, §3

[23] = tested on: Enterococcus faecium ATCC 8043; settings: BHI agar, 35-37 °C, 20 to 24 hours, unit assumed
Protocol: as §1, §2, §3

[24] = tested on: Micrococcus luteus ATCC 4698; settings: BHI agar, 35-37 °C, 20 to 24 hours, unit assumed
Protocol: as §1, §2, §3

[25] = tested on: Micrococcus luteus ATCC 9341; settings: BHI agar, 35-37 °C, 20 to 24 hours, unit assumed
Protocol: as §1, §2, §3

Pseudomonas capacia 2961 = settings: BHI agar, 35-37 °C, 20 to 24 hours, in µg/mL (unit assumed)
Protocol: as §1, §2, §3

[26] = tested on: Actinetobacter calcoaceticus CMX 669; settings: BHI agar, 35-37 °C, 20 to 24 hours, unit assumed
Protocol: as §1
(§4) An additional plate containing a compound having known susceptibility patterns for the organisms being tested and belonging to the same antibiotic class as the test compound was also prepared and incubated as a further control, as well as to provide test-to-test comparability.
as §3

[27] = tested on: Staphylococcus aureus A5177; settings: BHI agar, 35-37 °C, 20 to 24 hours, unit assumed
Protocol: as §1, §4, §3

Row | SMILES | MIC (Escherichia coli DC-2) [µg/mL] | MIC (Escherichia coli H560) [µg/mL] | MIC (Escherichia coli SS) [µg/mL] | MIC [2] [µg/mL] | MIC [3] [µg/mL] | MIC [4] [µg/mL] | MIC (Escherichia coli JUHL) | MIC [5] [µg/mL] | MIC [6] [µg/mL] | MIC (Escherichia coli KNK 437) [µg/mL] | MIC [7] [µg/mL] | MIC [8] [µg/mL] | MIC [9] [µg/mL] | MIC [10] [µg/mL] | MIC (Candida albicans CCH 442) [µg/mL] | MIC [11] [µg/mL] | MIC [12] [µg/mL] | MIC [13] [µg/mL] | MIC [14] | MIC [15] [µg/mL] | other results
1 | CC[C@H]1OC(=O)[C@H](C)[C@@H](O[C@H]2C[C@@](C)(OC)[C@@H](O)[C@H](C)O2)[C@H](C)[C@@H](O[C@@H]2O[C@H](C)C[C@H](N(C)C)[C@H]2O)[C@](C)(OCC(O)CO)C[C@@H](C)C(=O)[C@H](C)[C@@H](O)[C@]1(C)O (stereo partly shown) [Example 3, Compound of Formula (X): X is =O, R is 2.3-dihydroxypropyl] | 50 | 25 | 1.56 | 1.56 | 0.39 | > 100 | 50 | 3.1 | > 100 | 100 | 1.56 | 0.2 | 1.56 | 0.78 | > 100 | > 100 | 1.56 | > 100 | >100 | 0.2 | MIC [1]: 12.5 µg/mL; MIC [16]: 0.78 µg/mL; MIC [17]: > 100; MIC [18]: > 100 µg/mL; MIC [19]: > 100 µg/mL; MIC [20]: > 100 µg/mL; MIC [21]: > 100 µg/mL; MIC [22]: > 100 µg/mL; MIC [23]: 0.39 µg/mL; MIC [24]: 1.56 µg/mL; MIC [25]: 0.1 µg/mL; MIC (Pseudomonas capacia 2961): >100; MIC [26]: 12.5 µg/mL; MIC [27]: 50 µg/mL
2 | CC[C@H]1OC(=O)[C@H](C)[C@@H](O[C@H]2C[C@@](C)(OC)[C@@H](O)[C@H](C)O2)[C@H](C)[C@@H](O[C@@H]2O[C@H](C)C[C@H](N(C)C)[C@H]2O)[C@](C)(OCC(O)Cn2ccnc2)C[C@@H](C)C(=O)[C@H](C)[C@@H](O)[C@]1(C)O (stereo partly shown) [Example 5, Compound of Formula (X): X is =O, R is 2-hydroxy-3-(imidazol-1-yl)propyl] | 50 | 50 | 0.78 | 0.78 | 0.1 | > 100 | 25 | 0.78 | > 100 | 50 | 0.78 | 0.05 | 1.56 | 1.56 | > 100 | 100 | 0.78 | > 100 | 100 | 0.05 | MIC [16]: 1.56 µg/mL; MIC [17]: > 100; MIC [18]: 100 µg/mL; MIC [19]: > 100 µg/mL; MIC [20]: > 100 µg/mL; MIC [21]: > 100 µg/mL; MIC [22]: > 100 µg/mL; MIC [23]: 0.39 µg/mL; MIC [24]: 3.1 µg/mL; MIC [25]: 0.1 µg/mL; MIC (Pseudomonas capacia 2961): > 100; MIC [26]: 12.5 µg/mL; MIC [27]: 12.5 µg/mL

Reference: patent EP1007530B1, “6-O-SUBSTITUTED ERYTHROMYCIN COMPOUNDS AND METHOD FOR MAKING SAME” (ABBOTT LABORATORIES, priority 1996, dated 1997)
